Measurements reported in the supplement of paper PMC10307832.

Assays:
Assay in all cases: relative viability (nuclei count vs DMSO), 5 days (fraction); higher = more cells survive
Trametinib + Foretinib = compound: CC(=O)Nc1cccc(-n2c(=O)n(C3CC3)c(=O)c3c(Nc4ccc(I)cc4F)n(C)c(=O)c(C)c32)c1 [Trametinib] + COc1cc2c(Oc3ccc(NC(=O)C4(C(=O)Nc5ccc(F)cc5)CC4)cc3F)ccnc2cc1OCCCN1CCOCC1 [Foretinib] (partner 0.25 µM)
Procedure, shortened: (§1)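 Five library-drug doses in √10 steps were combined with a fixed anchor-drug dose, or a single drug was given alone, by pin tool to lung cancer cell lines in 1536-well plates the day after seeding. Nuclei were stained and counted after 5 days. Relative viability is the nuclei count in treated wells over that in vehicle wells, taken as the median of duplicate plates.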

Trametinib + Lapatinib = compound: CC(=O)Nc1cccc(-n2c(=O)n(C3CC3)c(=O)c3c(Nc4ccc(I)cc4F)n(C)c(=O)c(C)c32)c1 [Trametinib] + CS(=O)(=O)CCNCc1ccc(-c2ccc3ncnc(Nc4ccc(OCc5cccc(F)c5)c(Cl)c4)c3c2)o1 [Lapatinib] (partner 2 µM)
Procedure, shortened: as §1

Trametinib + Vorinostat = compound: CC(=O)Nc1cccc(-n2c(=O)n(C3CC3)c(=O)c3c(Nc4ccc(I)cc4F)n(C)c(=O)c(C)c32)c1 [Trametinib] + O=C(CCCCCCC(=O)Nc1ccccc1)NO [Vorinostat] (partner 1 µM)
Procedure, shortened: as §1

[1] = compound: CN1C=C(C2=CC=CC=C21)/C=C\3/C4=C(C=CC=N4)NC3=O + O=C(CCCCCCC(=O)Nc1ccccc1)NO [Vorinostat] (partner 1 µM)
Procedure, shortened: as §1

UMC-11
relative viability (Trametinib + Foretinib; first compound 0.0025 µM): 1 | relative viability (Trametinib + Foretinib; first compound 0.007906 µM): 1.03 | relative viability (Trametinib + Foretinib; first compound 0.025 µM): 0.997 | relative viability (Trametinib + Foretinib; first compound 0.07906 µM): 1.06 | relative viability (Trametinib + Foretinib; first compound 0.25 µM): 1.03 | relative viability (Trametinib + Lapatinib; first compound 0.0025 µM): 0.951 | relative viability (Trametinib + Lapatinib; first compound 0.007906 µM): 0.973 | relative viability (Trametinib + Lapatinib; first compound 0.025 µM): 0.348 | relative viability (Trametinib + Lapatinib; first compound 0.07906 µM): 0.963 | relative viability (Trametinib + Lapatinib; first compound 0.25 µM): 0.758 | relative viability (Trametinib + Vorinostat; first compound 0.0025 µM): 0.327 | relative viability (Trametinib + Vorinostat; first compound 0.007906 µM): 0.352 | relative viability (Trametinib + Vorinostat; first compound 0.07906 µM): 0.313 | relative viability (Trametinib + Vorinostat; first compound 0.25 µM): 0.294 | relative viability ([1]; first compound 0.02 µM): 0.323 | relative viability ([1]; first compound 0.06325 µM): 0.301 | relative viability ([1]; first compound 0.2 µM): 0.322 | relative viability ([1]; first compound 0.6325 µM): 0.391 | relative viability ([1]; first compound 2 µM): 0.36
